Molecular target: hVR1 (Homo sapiens, UniProt Q8NER1)
Test: Calcium imaging assay (Fura2) of VR1 antagonists, proton stimulation
Type: cell-based
Details: HEK 293 cells expressing hVR1; for % Inhibition @ 1 μM: calcium ion influx induced by proton stimulation (pH 5.7); for IC50: calcium ion influx induced by proton stimulation
Description: VR1 protein is a heat-gated cation channel that exchanges about 10 calcium ions for every sodium ion resulting in neuronal membrane depolarization and elevated intracellular calcium ion levels. Therefore the functional activity of compounds at the VR1 receptor may be determined by measuring changes in intracellular calcium levels in 293 cells expressing capsaicin-insensitive VR1 receptor variants. A dual wavelength ratiometric dye, Fura2, was used as an indicator of relative levels of calcium ions in a 96 well format using a bench top scanning fluorometer with integrated fluidics and temperature control (Flex Station, Molecular Devices).
A dual wavelength ratiometric dye, Fura2, was used as an indicator of relative levels of [Ca2+] in a 96 well format using a bench top scanning fluorometer with integrated fluidics and temperature control (Flex Station, Molecular Devices).
HEK 293 cells expressing hVR1 were grown on PDL coated 96-well black-walled plates, in the presence of a DMEM medium containing 5% Penstrep, 5% Glutamax, 200 ug/mL Hygromycin, 5 μg/mL Blasticide and 10% heat inactivated FBS. Prior to assay, the cells were loaded with 5 μg/mL Fura2 in normal saline solution at 37° C. for 40 minutes. Cells were then washed with normal saline to remove the dye.
The assay consists of two stages; a pre-treatment phase followed by a treatment phase. In the pretreatment phase, 50 μl of a compound solution was added to the cells. Immediately following, 50 μl of the test compound in the presence of agonist (a saline solution plus 10 mM citric acid bufferd to pH 5.7 with HCl) was added. Fura2 was excited at […] to indicate relative calcium concentration. Changes in wavelength measurements were made throughout the course of the experiment in 4 second intervals over a period of 3 minutes. The fluorescence ratio from the excitations at […] was recorded for analysis. Responses were measured as peak fluorescence ratio after compound-agonist addition minus baseline fluorescence ratio prior to treatment and were calculated for each concentration tested using the SoftMaxPro software. Data was expressed as percentage inhibition calculated as follows: […]
A dose response curve was then determined, from which the ID50 of each compound was calculated.

Chain of hVR1 (Q8NER1 whole entry): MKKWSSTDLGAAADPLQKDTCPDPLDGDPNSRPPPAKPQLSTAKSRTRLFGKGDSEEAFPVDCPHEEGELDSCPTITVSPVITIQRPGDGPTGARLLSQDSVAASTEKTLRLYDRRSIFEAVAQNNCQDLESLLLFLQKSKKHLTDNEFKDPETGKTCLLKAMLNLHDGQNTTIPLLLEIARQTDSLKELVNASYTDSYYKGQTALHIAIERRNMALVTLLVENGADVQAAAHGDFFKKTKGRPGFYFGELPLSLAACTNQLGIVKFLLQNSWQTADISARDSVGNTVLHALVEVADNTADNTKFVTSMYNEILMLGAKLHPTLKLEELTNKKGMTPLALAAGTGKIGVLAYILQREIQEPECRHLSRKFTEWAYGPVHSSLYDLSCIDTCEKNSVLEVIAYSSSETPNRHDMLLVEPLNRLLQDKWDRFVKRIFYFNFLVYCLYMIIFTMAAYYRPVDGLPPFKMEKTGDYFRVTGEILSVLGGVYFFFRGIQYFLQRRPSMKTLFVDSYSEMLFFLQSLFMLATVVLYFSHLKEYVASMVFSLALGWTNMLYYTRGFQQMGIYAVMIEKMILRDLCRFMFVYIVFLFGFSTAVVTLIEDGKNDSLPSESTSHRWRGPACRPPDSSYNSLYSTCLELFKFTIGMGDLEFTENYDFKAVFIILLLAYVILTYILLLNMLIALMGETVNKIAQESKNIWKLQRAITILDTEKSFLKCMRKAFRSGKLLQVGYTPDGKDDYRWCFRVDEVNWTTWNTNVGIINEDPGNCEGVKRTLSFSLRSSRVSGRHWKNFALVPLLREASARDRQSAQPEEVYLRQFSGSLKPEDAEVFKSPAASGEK

Oc1nc2c(c(Nc3ccc(C(F)(F)F)cc3)n1)CCN(c1ncccc1Cl)C2 [Example 57, 4-(4-(Trifluoromethyl)phenylamino)-7-(3-chloropyridin-2-yl)-5,6,7,8-tetrahydropyrido[3,4-d]pyrimidin-2-ol]
% Inhibition @ 1 μM: + (compound exhibited 0-25% inhibition of calcium ion influx induced by proton stimulation)
IC50: > 1000 nM

CC1(C)C(=O)NC(=O)c2cc(Nc3ncnc4c3CCN(c3ncccc3Cl)C4)ccc21 [Example 58, 7-(7-(3-Chloropyridin-2-yl)-5,6,7,8-tetrahydropyrido[3,4-d]pyrimidin-4-ylamino)-4,4-dimethylisoquinoline-1,3(2H,4H)-dione]
IC50: > 1000 nM

CC1(C)CCNc2cc(Nc3ncnc4c3CCN(c3ncccc3Cl)C4)ccc21 [Example 59, 7-(3-chloropyridin-2-yl)-5,6,7,8-tetrahydro-N-(1,2,3,4-tetrahydro-4,4-dimethylquinolin-7-yl)pyrido[3,4-d]pyrimidin-4-amine]
IC50: 101 to 500 nM

CN1CCC(C)(C)c2ccc(Nc3ncnc4c3CCN(c3ncccc3Cl)C4)cc21 [Example 60, 7-(3-Chloropyridin-2-yl)-5,6,7,8-tetrahydro-N-(1,2,3,4-tetrahydro-1,4,4-trimethylquinolin-7-yl)pyrido[3,4-d]pyrimidin-4-amine]
IC50: < 100 nM

CC(=O)N1Cc2cc(Nc3ncnc4c3CCN(c3ncccc3Cl)C4)ccc2C(C)(C)C1 [Example 61]
IC50: > 1000 nM

CC1(C)CNCc2cc(Nc3ncnc4c3CCN(c3ncccc3Cl)C4)ccc21 [Example 62, 7-(3-chloropyridin-2-yl)-5,6,7,8-tetrahydro-N-(1,2,3,4-tetrahydro-4,4-dimethylisoquinolin-7-yl)pyrido[3,4-d]pyrimidin-4-amine]
IC50: > 1000 nM

CSc1nc2c(c(Nc3ccc(C(F)(F)F)cc3)n1)CCN(c1ncccc1S(C)(=O)=O)C2 [Example 63, N-(4-(Trifluoromethyl)phenyl)-5,6,7,8-tetrahydro-7-(3-(methylsulfonyl)pyridin-2-yl)-2-(methylthio)pyrido[3,4-d]pyrimidin-4-amine]
% Inhibition @ 1 μM: +++ (compound exhibited 51-75% inhibition of calcium ion influx induced by proton stimulation)
IC50: 101 to 500 nM

CN1CCOc2cc(Nc3ncnc4c3CCN(c3ncccc3Cl)C4)ccc21 [Example 65, 7-(3-Chloropyridin-2-yl)-5,6,7,8-tetrahydro-N-(3,4-dihydro-4-methyl-2H-benzo[b][1,4]oxazin-7-yl)pyrido[3,4-d]pyrimidin-4-amine]
% Inhibition @ 1 μM: +++ (compound exhibited 51-75% inhibition of calcium ion influx induced by proton stimulation)
IC50: 101 to 500 nM

COC(=O)COc1nc2c(c(Nc3ccc(C(F)(F)F)cc3)n1)CCN(c1ncccc1Cl)C2 [Example 66, Methyl 2-(4-(4-(trifluoromethyl)phenylamino)-7-(3-chloropyridin-2-yl)-5,6,7,8-tetrahydropyrido[3,4-d]pyrimidin-2-yloxy)acetate]
% Inhibition @ 1 μM: ++++ (compound exhibited 76% or greater inhibition of calcium ion influx induced by proton stimulation)
IC50: < 100 nM

CC1(C)C(=O)Nc2cc(Nc3ncnc4c3CCN(c3ncccc3Cl)C4)ccc21 [Example 67, 6-(7-(3-Chloropyridin-2-yl)-5,6,7,8-tetrahydropyrido[3,4-d]pyrimidin-4-ylamino)-3,3-dimethylindolin-2-one]
IC50: > 1000 nM

CC(=O)N1CC(C)(C)c2ccc(Nc3ncnc4c3CCN(c3ncccc3Cl)C4)cc21 [Example 68, 1-(6-(7-(3-Chloropyridin-2-yl)-5,6,7,8-tetrahydropyrido[3,4-d]pyrimidin-4-ylamino)-3,3-dimethylindolin-1-yl)ethanone]
% Inhibition @ 1 μM: +++ (compound exhibited 51-75% inhibition of calcium ion influx induced by proton stimulation)
IC50: 501 to 1000 nM

CC1(C)CNc2cc(Nc3ncnc4c3CCN(c3ncccc3Cl)C4)ccc21 [Example 69, 7-(3-Chloropyridin-2-yl)-5,6,7,8-tetrahydro-N-(3,3-dimethylindolin-6-yl)pyrido[3,4-d]pyrimidin-4-amine]
% Inhibition @ 1 μM: ++++ (compound exhibited 76% or greater inhibition of calcium ion influx induced by proton stimulation)
IC50: 101 to 500 nM

From patent publication US7312330B2, “Bicycloheteroarylamine compounds as ion channel ligands and uses thereof” (Renovis, Inc., priority 2003, dated 2007)
